Values of other authors as cited in patent US20250352536A1, “NEURORESTORATION COMPOSITIONS IMPLEMENTING MULTIPLE NEUROPLASTICITY INDUCING MECHANISMS OF ACTION” (Neuro-Innovators, Inc., priority 2022, published 2025).

System: recurrent stroke
Settings: compared with aspirin, previous clinical trials

- hemorrhagic events: fewer hemorrhagic events
Structure (SMILES): O=C1CCc2cc(OCCCCc3nnnn3C3CCCCC3)ccc2N1 [cilostazol, Cilostazol]
- incidence of recurrent stroke: significantly reduce the incidence of recurrent stroke
